Data on 21 molecules can be found in patent US12304912B2, “Fused bicyclic RAF inhibitors and methods for use thereof” (Jazz Pharmaceuticals Ireland Limited, priority 2020, dated 2025).

Like-named read-outs stand apart in the source and are kept apart here. Where only a bound is given, the exact number is not on record here.

For series [1], the system named is BRAF monomers in A375 cells. The series can be described thus: A375 AlphaLISA SureFire pERK1/2 cellular assay (monomer). The settings on record: Homo sapiens, read-out: pERK A375 (1 hr) pIC50 (converted). The series is classed as cell-based. The gist of the method:
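BRAF^V600E A375 melanoma cells seeded at 30,000/well in DMEM with 10% FBS, dosed without medium exchange in a 10-point series from 10 μM at 1/2-log steps, 1 h at 37 °C. Phospho-ERK1/2 (Thr202/Tyr204) measured in lysates by AlphaLISA SureFire; absolute IC50 relative to DMSO control.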
(In general: Bead proximity is the source of the signal in Alpha formats.)

Series [2] has as its system RAF dimers in HCT-116 cells. The series can be described thus: HCT-116 AlphaLISA SureFire pERK1/2 cellular assay (dimer). The settings on record: Homo sapiens, HCT-116; HCT116 cells, dimer, 1 hr; read-out: pERK HCT116 dimer (1 hr) plC50 (converted). The series is classed as cell-based. The gist of the method: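 HCT-116 (KRAS G13D) cells, 30,000/well, pretreated 1 h with 1 μM Encorafenib to induce RAF dimers, washed, then dosed 1 h at 37° C with compound (10-point, top 10 μM, 1/2 log steps) in growth medium. pERK1/2 (T202/Y204) measured by AlphaLISA SureFire; absolute IC50 versus DMSO control.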

Series [3] in a line: Plasma protein binding assay, human plasma (hPPB). The settings on record: 5 μM, equilibrium dialysis 4 hours at 37° C. The series is classed as in vitro ADME. The method in brief: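 Equilibrium dialysis of 5 μM compound in previously frozen human or mouse plasma against phosphate buffer, 4 h at 37 °C. Both chambers quantified by LC-MS/MS; % free = (1−((PC−PF)/PC))×100.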
Background: Equilibrium dialysis compares concentrations on both sides of a semipermeable membrane.

Consider `O=C1CCc2c(Oc3ccc4c(c3)CC(c3nc(C5CCOCC5)c[nH]3)CO4)ccnc2N1` (stereo not drawn) [Compound 132, 5-[3-(4-tetrahydropyran-4-yl-1H-imidazol-2-yl)chroman-6-yl]oxy-3,4-dihydro-1H-1,8-naphthyridin-2-one], for which the IC50 in series [1] (A-375, A375 cells, 1 hr) is 759 nM; in series [2], 427 nM. For the same molecule, the “hPPB (% free)” value in series [3] was determined as 2.6 % free.

For `O=C1CCc2c(Oc3ccc4c(c3)CC(c3nc5ccncc5[nH]3)CO4)ccnc2N1` (stereo not drawn) [Compound 134, 5-[3-(3H-imidazo[4,5-c]pyridin-2-yl)chroman-6-yl]oxy-3,4-dihydro-1H-1,8-naphthyridin-2-one], the IC50 is greater than 1000 nM in series [1] (A-375, A375 cells, 1 hr) and 32.4 nM in series [2]. In addition, in series [3], the “hPPB (% free)” value is on record as 6.1 % free.

Regarding `O=C(Nc1cc(Oc2ccc3c(c2)CC(c2nc(-c4ccccc4)c[nH]2)CO3)ccn1)C1CC1(F)F` (stereo not drawn) [Compound 137, 2,2-difluoro-N-[4-[3-(4-phenyl-1H-imidazol-2-yl)chroman-6-yl]oxy-2-pyridyl]cyclopropanecarboxamide], the IC50 in series [1] (A-375, A375 cells, 1 hr) was 191 nM; in series [2], 28.2 nM. The “hPPB (% free)” value in series [3] was 0.1 % free.

`O=C(Nc1cc(Oc2ccc3c(c2)CC(c2nc(-c4ccccc4)c[nH]2)CO3)ccn1)C1(F)CC1` (stereo not drawn) [Compound 138]: the IC50 in series [1] (A-375, A375 cells, 1 hr) is 1620 nM; in series [2], 813 nM. In addition, the “hPPB (% free)” value in series [3] is less than 0.1 % free.

As to `O=C(Nc1cc(Oc2ccc3c(c2)CC(c2nc(-c4ccccc4)c[nH]2)CO3)ccn1)C1CC(F)(F)C1` (stereo not drawn) [Compound 139], the IC50 is 1070 nM in series [1] (A-375, A375 cells, 1 hr) and 219 nM in series [2]. The “hPPB (% free)” value in series [3] is listed as less than 0.1 % free.

Take `c1ccc(-c2c[nH]c(C3COc4ccc(Oc5ccnc(Nc6ccccn6)c5)cc4C3)n2)cc1` (stereo not drawn) [Compound 140, 4-[3-(4-phenyl-1H-imidazol-2-yl)chroman-6-yl]oxy-N-(2-pyridyl)pyridin-2-amine]: the IC50 in series [1] (A-375, A375 cells, 1 hr) is 5890 nM; in series [2] it was 2040 nM. Moreover, the “hPPB (% free)” value in series [3] is listed as less than 0.1 % free.

As to `Cc1c[nH]c(-c2cc(Oc3ccc4c(c3)CC(c3nc(-c5ccccc5)c[nH]3)CO4)ccn2)n1` (stereo not drawn) [Compound 143, 2-(4-methyl-1H-imidazol-2-yl)-4-[3-(4-phenyl-1H-imidazol-2-yl)chroman-6-yl]oxy-pyridine], the IC50 in series [1] (A-375, A375 cells, 1 hr) was 794 nM; in series [2], 575 nM. The “hPPB (% free)” value in series [3] is recorded as less than 0.1 % free.

As to `O=C(Cn1ccnc1)Nc1cc(Oc2ccc3c(c2)CC(c2nc(-c4ccccc4)c[nH]2)CO3)ccn1` (stereo not drawn) [Compound 144], the IC50 is 204 nM in series [1] (A-375, A375 cells, 1 hr) and 60.3 nM in series [2]. Besides, the “hPPB (% free)” value in series [3] was 0.7 % free.

Turning to `O=C(CN1CC[C@@H](O)C1)Nc1cc(Oc2ccc3c(c2)CC(c2nc(-c4ccccc4)c[nH]2)CO3)ccn1` (stereo partly drawn) [Compound 145], the IC50 in series [1] (A-375, A375 cells, 1 hr) was 537 nM; in series [2], 178 nM. Also, the “hPPB (% free)” value in series [3] is given as 0.4 % free.

Consider `CN1CCN(CC(=O)Nc2cc(Oc3ccc4c(c3)CC(c3nc(-c5ccccc5)c[nH]3)CO4)ccn2)CC1` (stereo not drawn) [Compound 146, 2-(4-methylpiperazin-1-yl)-N-[4-[3-(4-phenyl-1H-imidazol-2-yl)chroman-6-yl]oxy-2-pyridyl]acetamide], for which the IC50 in series [1] (A-375, A375 cells, 1 hr) is 372 nM; in series [2] it was 170 nM. The “hPPB (% free)” value in series [3] worked out at 1.5 % free.

With `CN1CCC(C(=O)Nc2cc(Oc3ccc4c(c3)CC(c3nc(-c5ccccc5)c[nH]3)CO4)ccn2)CC1` (stereo not drawn) [Compound 147, 1-methyl-N-[4-[3-(4-phenyl-1H-imidazol-2-yl)chroman-6-yl]oxy-2-pyridyl]piperidine-4-carboxamide], the IC50 was 631 nM in series [1] (A-375, A375 cells, 1 hr) and 437 nM in series [2]. In series [3], the “hPPB (% free)” value is 0.5 % free.

As to `O=C(Nc1nccc(Oc2ccc3c(c2)CC(c2nc(-c4ccccc4)c[nH]2)CO3)n1)C1CC1` (stereo not drawn) [Compound 148, N-[4-[3-(4-phenyl-1H-imidazol-2-yl)chroman-6-yl]oxypyrimidin-2-yl]cyclopropanecarboxamide], the IC50 in series [1] (A-375, A375 cells, 1 hr) is 1230 nM; in series [2] it was 457 nM. Also, the “hPPB (% free)” value in series [3] was 0.9 % free.

Consider `O=C(CN1CCOCC1)Nc1cc(Oc2ccc3c(c2)CC(c2nc(-c4ccccc4)c[nH]2)CO3)ccn1` (stereo not drawn) [Compound 149], for which the IC50 in series [1] (A-375, A375 cells, 1 hr) is 1320 nM; in series [2] it was 363 nM. In addition, in series [3], the “hPPB (% free)” value amounted to 0.25 % free.

Regarding `O=C(Nc1cc(Oc2ccc3c(c2)CC(c2nc(-c4ccccc4)c[nH]2)CO3)ncn1)C1CC1` (stereo not drawn) [Compound 151, N-[6-[3-(4-phenyl-1H-imidazol-2-yl)chroman-6-yl]oxypyrimidin-4-yl]cyclopropanecarboxamide], the IC50 in series [1] (A-375, 1 h) is 347 nM; in series [2], 204 nM. Also, the “hPPB (% free)” value in series [3] came out at 0.21 % free.

On to `O=C(CN1CCCC1)Nc1cc(Oc2ccc3c(c2)CC(c2nc(-c4ccccc4)c[nH]2)CO3)ccn1` (stereo not drawn) [Compound 152], for which the IC50 is 603 nM in series [1] (A-375, A375 cells, 1 hr) and 275 nM in series [2]. For the same molecule, in series [3], the “hPPB (% free)” value is 0.48 % free.

Regarding `O=C(CN1CC(O)C1)Nc1cc(Oc2ccc3c(c2)CC(c2nc(-c4ccccc4)c[nH]2)CO3)ccn1` (stereo not drawn) [Compound 153], the IC50 in series [1] (A-375, A375 cells, 1 hr) is 501 nM; in series [2] it was 126 nM. For the same molecule, the “hPPB (% free)” value in series [3] came out at 0.39 % free.

On to `O=C(Cn1cncn1)Nc1cc(Oc2ccc3c(c2)CC(c2nc(-c4ccccc4)c[nH]2)CO3)ccn1` (stereo not drawn) [Compound 154], for which the IC50 in series [1] (A-375, A375 cells, 1 hr) is 97.7 nM; in series [2], 38 nM. The “hPPB (% free)” value in series [3] is reported as 0.75 % free.

With `O=C(Nc1cc(Oc2ccc3c(c2)CC(c2nc(-c4ccc(F)cc4)c[nH]2)CO3)ccn1)C1CC1` (stereo not drawn) [Compound 155, N-[4-[3-[4-(4-fluorophenyl)-1H-imidazol-2-yl]chroman-6-yl]oxy-2-pyridyl]cyclopropanecarboxamide], the IC50 in series [1] (A-375, A375 cells, 1 hr) is 117 nM; in series [2], 72.4 nM. Moreover, the “hPPB (% free)” value in series [3] amounted to 0.1 % free.

In the case of `CC(=O)Nc1cc(Oc2ccc3c(c2)CC(c2nc(-c4ccccc4)c[nH]2)CO3)ccn1` (stereo not drawn) [Compound 156, N-[4-[3-(4-phenyl-1H-imidazol-2-yl)chroman-6-yl]oxy-2-pyridyl]acetamide], the IC50 in series [1] (A-375, A375 cells, 1 hr) was 178 nM; in series [2] it was 52.5 nM. In addition, the “hPPB (% free)” value in series [3] is on record as 0.5 % free.

Regarding `CC1CC1C(=O)Nc1cc(Oc2ccc3c(c2)CC(c2nc(-c4ccccc4)c[nH]2)CO3)ccn1` (stereo not drawn) [Compound 157], the IC50 in series [1] (A-375, A375 cells, 1 hr) is 525 nM; in series [2], 174 nM. For the same molecule, the “hPPB (% free)” value in series [3] was less than 0.1 % free.

On to `O=C1CCc2c(Oc3ccc4c(c3)CN(c3nc5cc(C(F)(F)F)ccc5[nH]3)CC4)ccnc2N1` [Compound 160], for which the IC50 is 871 nM in series [1] (A-375, A375 cells, 1 hr) and 347 nM in series [2]. Moreover, the “hPPB (% free)” value in series [3] is 0.3 % free.
